Laboratory results from US11992535B2, “Compounds and probes for imaging huntingtin protein” (CHDI Foundation, Inc., priority 2019, dated 2024).
Read-outs that look alike come from different tables or passages of the source.

Target: aggregated MBP-HTT(1-89)Q46-His(6×) (Exonl-Q46) protein (Q46 protein aggregates) (Homo sapiens (Human), UniProt P42858, INS38QQQQQQQQQQQQQQQQQQQQQQQQQ)
Test: Q46 Radioligand Binding Assay
Settings: read-out: Q46_RBA EC50_
Description: Q46 Radioligand Binding Assay
For radioligand binding assays (RBA) MBP-HTT(1-89)Q46-His(6×) (“Exonl-Q46”) protein was generated based on a previous publication (Scherzinger et al. Cell, Vol. 90, 549-558, Aug. 8, 1997). For experiments 30 μM MBP-Exonl-Q46 was incubated with 150 μg/mL thrombin in assay buffer (150 mM NaCl, 50 mM Tris pH 8.0) and 2 mM CaCl2 for 16 hours at 37° C. Aggregated Exonl-Q46 was pelleted by centrifugation for 5 minutes at 13,000 rpm in a bench top centrifuge and re-dissolved in the same volume of assay buffer. Test compounds were prepared by titration in DMSO at 11 concentrations from 63 μM to 2 nM. For the RBA, Q46 protein aggregates and test compounds were pre-incubated in assay buffer for 20 minutes at room temperature, in 100 μL/well in a 96-well plate (pp, round bottom). Then, ligand was added in 50 μL/well and incubated for 60 minutes at 37° C. Final assay concentrations were 1 μM to 30 μM test compound, 1 μM Exonl-Q46 protein (equivalent monomer concentration) and 0.3 nM ligand [^3H3-methyl]-5-((5-methoxypyridin-2-yl)methoxy)-2-(pyrazin-2-yl)benzo[d]oxazole. Samples were transferred onto GF/B filter plates and washed 2× with 200 μL PBS using a Filtermate Harvester. After drying filter plates for 1 hour at 55° C., the back of the plates were sealed with foil and 30 μL/well scintillation fluid (Packard MicroScint 40) added, incubated for 15 minutes in the dark and counted in a MicroBeta reader. For analysis, replicate data from independent assay plates were normalized towards 0% and 100% inhibition using control wells of vehicle (0% inhibition) and 1 μM unlabelled [^3H3-methyl]-5-((5-methoxypyridin-2-yl)methoxy)-2-(pyrazin-2-yl)benzo[d]oxazole (100% inhibition). IC50 values were determined with a sigmoidal inhibition model with four variables (top, bottom, slope, IC50) in a global fit using the normalized replicate data.

[1] = displacement of 0.3 nM [3H3-methyl]-5-((5-methoxypyridin-2-yl)methoxy)-2-(pyrazin-2-yl)benzo[d]oxazole from 1 μM Exonl-Q46 aggregates, method calls the values IC50
[2] = same radioligand displacement on Exonl-Q46 aggregates

Chain of aggregated MBP-HTT(1-89)Q46-His(6×) (Exonl-Q46) protein (Q46 protein aggregates) (P42858 other isoform, or with tags, fused parts or gaps, stated change not applied): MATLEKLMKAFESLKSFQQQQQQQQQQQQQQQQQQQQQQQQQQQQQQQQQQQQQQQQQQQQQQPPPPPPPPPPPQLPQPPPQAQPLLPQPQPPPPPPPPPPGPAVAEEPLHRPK

| EC50 [1] [nM] | EC50 [2] [nM] | SMILES |
| --- | --- | --- |
| 56.8 | < 100 | COc1ccc(COc2ccc3c(c2)CN(C(=O)c2cn(C)c(=O)cn2)CC3)nc1 [Example 15, 5-{7-[(5-Methoxypyridin-2-yl)methoxy]-1,2,3,4-tetrahydroisoquinoline-2-carbonyl}-1-methyl-1,2-dihydropyrazin-2-one] |
| 2.06 | < 100 | COc1ccc(COc2cnc3c(c2)CN(C(=O)c2ccc(-n4ccnc4)nc2)CC3)nc1 [Example 24, 6-[6-(1H-Imidazol-1-yl)pyridine-3-carbonyl]-3-[(5-methoxypyridin-2-yl)methoxy]-5,6,7,8-tetrahydro-1,6-naphthyridine] |
